Where two headings read alike, the source gives them in different places.
Key:
[1] = Behavioral responses and deaths in rats; format: in vivo, Male Sprague-Dawley rats
Method: (§1) Male Sprague-Dawley rats weighing 200-300 g are fasted for 17 hours prior to the experiments. They are kept for at least two days on a day-light, night-dark cycle, and the experiments are conducted between 0900 and 1400 hours on the day following the fast. All injections are given intraperitoneally, and all drugs are given as a suspension in 1% methyl ceullulose.
1. Effect of DHMPP with time: Absolute control rats receive no injections. Levodopa controls are given levodopa, 250 mg/kg. Experimental animals are pretreated with DHMPP, 250 mg/kg, 30 min before receiving a combined injection of DHMPP and levodopa, each 250 mg/kg. Animals are decapitated at 30 min time intervals between 0 and 120 min after levodopa administration. Blood and brain are collected.
(§2) 2. Effect of dose of DHMPP: Absolute and levodopa control rats receive the same treatment as described above. Experimental rats were pretreated with DHMPP (50, 100, 150, 200 or 250 mg/kg) 30 min before receiving the injection of levodopa, 250 mg/kg. All animals are decapitated 90 min after receiving levodopa. Blood and brain are collected.

[2] = Effect of DHMPP with time on plasma and brain levodopa, OMD and dopamine after levodopa administration; format: in vivo, Male Sprague-Dawley rats; details: rat, ip, 250 mg/kg
Method: (§3) Male Sprague-Dawley rats weighing 200-300 g are fasted for 17 hours prior to the experiments. They are kept for at least two days on a day-light, night-dark cycle, and the experiments are conducted between 0900 and 1400 hours on the day following the fast. All injections are given intraperitoneally, and all drugs are given as a suspension in 1% methyl ceullulose. 1. Effect of DHMPP with time: Absolute control rats receive no injections. Levodopa controls are given levodopa, 250 mg/kg. […] Blood and brain are collected. […] Analytical procedures: […] The supernatants are collected and the above procedure is repeated on the residue. The combined supernatants are stored at -20° C. Blood samples are collected in heparinized tubes immediately after decapitation, chilled, and centrifuged, and the plasma is pipetted off. Plasma proteins are precipitated in 4 volumes ice-cold 0.4 M perchloric acid solution and centrifuged at 10,000 rpm for 15 min. Protein-free supernatants are decanted and stored at -20° C. […] Am. Soc. Neurochem. 4:105 (1973) Homovanillic acid (HVA) remains in the combined effluent and subsequent water wash; these eluates undergo solvent extractions and are assayed by the automated method of […]., et al., Biochem. […] Levodopa and OMD are eluted together and assayed according to the method of Fahn, S., et al., Anal. Biochem. 46:557 (1972). After dopamine is eluted, it is measured by the automated method of […]., Brit. J. Pharmacol. All eluates are assayed within 10 days of chromatography; they are stored at -20° C., thawed and mixed thoroughly before assay.

COMT [3] = test: as above; format: in vivo, Male Sprague-Dawley rats
Method: as §3

COMT [4] = test: Effect of dose of DHMPP on plasma and brain OMD, levodopa and dopamine after levodopa treatment; format: in vivo, Male Sprague-Dawley rats
Method: as §1, §2
3. Analytical procedures: Brains are chilled on ice, homogenized in 3 volumes ice-cold 0.4 M perchloric acid containing 0.025% ascorbic acid, and centrifuged at 15,000 rpm for 20 min. The supernatants are collected and the above procedure is repeated on the residue. The combined supernatants are stored at -20° C. Blood samples are collected in heparinized tubes immediately after decapitation, chilled, and centrifuged, and the plasma is pipetted off. Plasma proteins are precipitated in 4 volumes ice-cold 0.4 M perchloric acid solution and centrifuged at 10,000 rpm for 15 min. Protein-free supernatants are decanted and stored at -20° C. All samples are chromatographed within two days of the experiment.
Column chromatography of the sample extracts is carried out on a strong cation resin (Bio Rad AG 50-X8) according to the method of Prased, A. L. N., et al., Trans. Am. Soc. Neurochem. 4:105 (1973) Homovanillic acid (HVA) remains in the combined effluent and subsequent water wash; these eluates undergo solvent extractions and are assayed by the automated method of Prasad, A. L. N., et al., Biochem. Med. 9:136 (1974). Levodopa and OMD are eluted together and assayed according to the method of Fahn, S., et al., Anal. Biochem. 46:557 (1972). After dopamine is eluted, it is measured by the automated method of Atack, C. V., Brit. J. Pharmacol. All eluates are assayed within 10 days of chromatography; they are stored at -20° C., thawed and mixed thoroughly before assay.

[5] = system: catechol-O-methyl transferase (COMT); details: cited from earlier work
[6] = crystalline solid; cited from earlier work
[7] = DHMPP 250 mg/kg pretreatment plus DHMPP and levodopa 250 mg/kg each, i.p.
[8] = all doses of DHMPP, 90 min after levodopa

SMILES: N[C@@H](Cc1ccc(O)c(O)c1)C(=O)O [levodopa, 3-(3,4-dihydroxyphenyl)-L-alanine]
- effect of levodopa on lethargic symptoms induced by DHMPP ([1]; levodopa 250 mg/kg i.p. after DHMPP): markedly attenuates all lethargic symptoms induced by DHMPP, but does not abolish them
- behavioral responses to levodopa ([1]; levodopa 250 mg/kg i.p., all rats treated with levodopa): increased locomotor activity, erection of hair (piloerection), abnormal protrusion of the eyeball (exophthalmos) and other signs of sympathetic stimulation
- Tmax ([2]; in vivo, time of peak levodopa in brain): 30 min
- Tmax ([2]; plasma, DHMPP plus levodopa i.p., after levodopa administration, read-out: time of peak plasma levodopa level with inhibition of COMT (converted)): 90 min
- Tmax ([2]; plasma, levodopa 250 mg/kg i.p., alone or with DHMPP, after levodopa injection, read-out: time of maximal plasma levels of levodopa (converted)): 30 min
- OMD accumulation in plasma after levodopa administration (COMT [3]; levodopa 250 mg/kg i.p.): progressively accumulates in plasma
- time course of brain OMD levels (COMT [3]; rat, in vivo): rise slowly for the first 30 min in levodopa and absolute control animals and then increase more rapidly and linearly
- time of maximal dopamine concentration in brain (COMT [3]; rat, in vivo): 30 to 60 min
- brain OMD level (COMT [3]; rat, in vivo, 240 min): 18 nmol/g

SMILES: CC(C)C(=O)c1ccc(O)c(O)c1 [DHMPP, 3',4'-Dihydroxy-2-methyl-propiophenone]
- degree of lethargy versus dosage of DHMPP ([1]; DHMPP 50-250 mg/kg i.p.): related to the dosage of DHMPP employed
- motor activity and behavioral responses to DHMPP ([1]; DHMPP i.p., within 10 min of injection): striking reduction in motor activity within 10 min of injection, including prostration, lying on one side, rapid breathing and loss of responsiveness to handling and other stimuli
- piloerection in animals receiving both inhibitor and levodopa ([1]; DHMPP plus levodopa, i.p.): Little piloerection is apparent
- deaths at lower doses ([1]; rat, in vivo): Deaths do not occur
- deaths, dose-response experiment ([1]; rat, in vivo, ip, 250 mg/kg): two of six
- increase in plasma levodopa levels on inhibition of COMT (COMT [3]; [7]): three-fold
- prevention of measurable accumulation of OMD in plasma (COMT [3]; [7]): completely prevents measurable accumulation of OMD in plasma
- increase in brain levodopa concentration with COMT inhibition (COMT [3]; DHMPP plus levodopa i.p., 30 min time point): more than two-fold
- increase in brain dopamine level on inhibition of COMT (COMT [3]; DHMPP plus levodopa i.p., at 60 min): more than two-fold
- accumulation of brain OMD on DHMPP treatment (COMT [3]; DHMPP plus levodopa, i.p.): blocked
- levodopa and dopamine concentrations in brain (conclusion) (COMT [3]; animals treated with DHMPP and levodopa): striking enhancement and prolongation of levodopa and dopamine concentrations in the brain
- accumulation of 3-O-methylated derivatives of catechols in plasma and brain (conclusion) (COMT [3]; high dosage, acute levodopa administration): does inhibit the accumulation of 3-O-methylated derivatives of catechols in plasma and brain
- inhibition of OMD accumulation in plasma relative to levodopa controls (COMT [4]; DHMPP 100 mg/kg i.p., 90 min after levodopa): completely inhibits
- plasma OMD accumulation (COMT [4]; DHMPP 100 mg/kg or greater i.p., 90 min after levodopa): completely blocked
- plasma levodopa levels (COMT [4]; DHMPP 50-250 mg/kg i.p., 90 min after levodopa 250 mg/kg): not affected
- accumulation of OMD in brain (COMT [4]; DHMPP 100 and 200 mg/kg i.p., 90 min after levodopa): inhibited
- inhibition at 100 mg/kg (COMT [4]; Rattus norvegicus, ip, 1.5 h, DHMPP 100 mg/kg i.p., 90 min after levodopa, read-out: inhibition of OMD accumulation in brain relative to levodopa controls): 80%
- dopamine levels in brain (COMT [4]; [8]): not significantly altered
- levodopa levels in brain (COMT [4]; [8]): not significantly altered
- inhibition of COMT (literature) [5]: inhibition of the enzyme catechol-O-methyl transferase (COMT)
- water solubility [6]: water-soluble

Source: US4190672A, “Method and compositions of treating Parkinsonisms with levodopa and 3',4'-dihydroxy-2-methylisopropiophenone” (priority 1978, dated 1980)
